Assay results published in ChEMBL document CHEMBL1201862, “PubChem BioAssay data set” (2004).
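These data come from cells grown in 96-well plates and exposed to compound for 48 hours at five concentrations. The concentration for 50% growth inhibition is given as GI50.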 Activity calls are given as the source filed them. Rule as the data show it: active = GI50 up to about 1.1 µM and inactive = higher.

What was measured:
Experiment in all cases: growth of human tumour cells (NCI), 48 h
786-0 = test system: 786-0
A498 = test system: A498
A549 = test system: A549
ACHN = test system: ACHN
BT-549 = test system: BT-549
CAKI-1 = test system: CAKI-1
CCRF-CEM = test system: CCRF-CEM
COLO 205 = test system: COLO 205
DU-145 = test system: DU-145
EKVX = test system: EKVX
HCC 2998 = test system: HCC 2998
HCT-116 = test system: HCT-116
HCT-15 = test system: HCT-15
HOP-62 = test system: HOP-62
HOP-92 = test system: HOP-92
HT-29 = test system: HT-29
Hs-578T = test system: Hs-578T
IGROV-1 = test system: IGROV-1
K562 = test system: K562
KM12 = test system: KM12
M14 = test system: M14
MCF7 = test system: MCF7
MDA-MB-231 = test system: MDA-MB-231
MDA-MB-435 = test system: MDA-MB-435
MDA-N = test system: MDA-N
MOLT-4 = test system: MOLT-4
Malme-3M = test system: Malme-3M
NCI-H226 = test system: NCI-H226
NCI-H23 = test system: NCI-H23
NCI-H460 = test system: NCI-H460
NCI-H522 = test system: NCI-H522
NCI/ADR-RES = test system: NCI/ADR-RES
OVCAR-3 = test system: OVCAR-3
OVCAR-4 = test system: OVCAR-4
OVCAR-5 = test system: OVCAR-5
PC-3 = test system: PC-3
RXF 393 = test system: RXF 393
SF-268 = test system: SF-268
SF-295 = test system: SF-295
SK-MEL-28 = test system: SK-MEL-28
SK-MEL-2 = test system: SK-MEL-2
SK-MEL-5 = test system: SK-MEL-5
SK-OV-3 = test system: SK-OV-3
SN12C = test system: SN12C
SNB-19 = test system: SNB-19
SNB-75 = test system: SNB-75
SR = test system: SR
SW-620 = test system: SW-620
T47D = test system: T47D
TK-10 = test system: TK-10
U-251 = test system: U-251
UACC-257 = test system: UACC-257
UACC-62 = test system: UACC-62
UO-31 = test system: UO-31
HL-60 = test system: HL-60
LOX IMVI = test system: LOX IMVI
OVCAR-8 = test system: OVCAR-8
RPMI-8226 = test system: RPMI-8226
SF-539 = test system: SF-539

SMILES: CC(C)C(CC(=O)OCC(CO)OC(=O)CC(C(C)C)C(C)C)C(C)C (centres undefined)
- GI50 (786-0): 12.4 µM (inactive)
- GI50 (A498): 15.3 µM (inactive)
- GI50 (A549): 11 µM (inactive)
- GI50 (ACHN): 10.9 µM (inactive)
- GI50 (BT-549): 19.1 µM (inactive)
- GI50 (CAKI-1): 12.3 µM (inactive)
- GI50 (CCRF-CEM): 5.53 µM (inactive)
- GI50 (COLO 205): 6.73 µM (inactive)
- GI50 (DU-145): 15.4 µM (inactive)
- GI50 (EKVX): 14 µM (inactive)
- GI50 (HCC 2998): 15.8 µM (inactive)
- GI50 (HCT-116): 16.2 µM (inactive)
- GI50 (HCT-15): 16.9 µM
- GI50 (HOP-62): 10.5 µM (inactive)
- GI50 (HOP-92): 2.75 µM (inactive)
- GI50 (HT-29): 17.4 µM (inactive)
- GI50 (Hs-578T): 4.85 µM (inactive)
- GI50 (IGROV-1): 19.1 µM (inactive)
- GI50 (K562): 6 µM (inactive)
- GI50 (KM12): 15.7 µM (inactive)
- GI50 (M14): 14.1 µM (inactive)
- GI50 (MCF7): 17.5 µM (inactive)
- GI50 (MDA-MB-231): 15.7 µM (inactive)
- GI50 (MDA-MB-435): 13.7 µM (inactive)
- GI50 (MDA-N): 13.6 µM (inactive)
- GI50 (MOLT-4): 10.1 µM (inactive)
- GI50 (Malme-3M): 15.1 µM (inactive)
- GI50 (NCI-H226): 16.1 µM (inactive)
- GI50 (NCI-H23): 16.6 µM (inactive)
- GI50 (NCI-H460): 11.8 µM (inactive)
- GI50 (NCI-H522): 12.6 µM (inactive)
- GI50 (NCI/ADR-RES): 13.5 µM (inactive)
- GI50 (OVCAR-3): 13.9 µM (inactive)
- GI50 (OVCAR-4): 18 µM (inactive)
- GI50 (OVCAR-5): 13 µM (inactive)
- GI50 (PC-3): 14.4 µM (inactive)
- GI50 (RXF 393): 16.6 µM (inactive)
- GI50 (SF-268): 14.3 µM (inactive)
- GI50 (SF-295): 6.27 µM (inactive)
- GI50 (SK-MEL-28): 16.2 µM (inactive)
- GI50 (SK-MEL-2): 18.2 µM (inactive)
- GI50 (SK-MEL-5): 11.9 µM (inactive)
- GI50 (SK-OV-3): 16.7 µM (inactive)
- GI50 (SN12C): 12.9 µM (inactive)
- GI50 (SNB-19): 14.7 µM (inactive)
- GI50 (SNB-75): 10.2 µM (inactive)
- GI50 (SR): 22.1 µM (inactive)
- GI50 (SW-620): 13.6 µM (inactive)
- GI50 (T47D): 16.6 µM (inactive)
- GI50 (TK-10): 13.3 µM (inactive)
- GI50 (U-251): 13.1 µM (inactive)
- GI50 (UACC-257): 17.1 µM (inactive)
- GI50 (UACC-62): 15.8 µM (inactive)
- GI50 (UO-31): 14.6 µM (inactive)

SMILES: CCOC(=O)/C=C/C(Br)=C(Br)/C=C/C(=O)OCC
- GI50 (786-0): 3.01 µM (inactive)
- GI50 (A498): 26.9 µM (inactive)
- GI50 (A549): 22.5 µM (inactive)
- GI50 (ACHN): 12.3 µM (inactive)
- GI50 (BT-549): 5.62 µM (inactive)
- GI50 (CAKI-1): 3.84 µM (inactive)
- GI50 (CCRF-CEM): 0.796 µM (active)
- GI50 (COLO 205): 16.4 µM (inactive)
- GI50 (DU-145): 13.1 µM (inactive)
- GI50 (EKVX): 17.9 µM (inactive)
- GI50 (HCC 2998): 20.6 µM (inactive)
- GI50 (HCT-116): 2.77 µM (inactive)
- GI50 (HCT-15): 4.92 µM
- GI50 (HL-60): 5.85 µM (inactive)
- GI50 (HOP-62): 17.9 µM (inactive)
- GI50 (HOP-92): 19.1 µM (inactive)
- GI50 (HT-29): 14.8 µM (inactive)
- GI50 (Hs-578T): 29.2 µM (inactive)
- GI50 (IGROV-1): 14.2 µM (inactive)
- GI50 (K562): 2.65 µM (inactive)
- GI50 (KM12): 16.6 µM (inactive)
- GI50 (LOX IMVI): 2.52 µM (inactive)
- GI50 (M14): 13.3 µM (inactive)
- GI50 (MCF7): 7.93 µM (inactive)
- GI50 (MDA-MB-231): 16.3 µM (inactive)
- GI50 (MDA-MB-435): 7.13 µM (inactive)
- GI50 (MDA-N): 10.3 µM (inactive)
- GI50 (MOLT-4): 1.83 µM (inactive)
- GI50 (Malme-3M): 3.4 µM (inactive)
- GI50 (NCI-H226): 29.5 µM (inactive)
- GI50 (NCI-H23): 14.5 µM (inactive)
- GI50 (NCI-H460): 33.9 µM (inactive)
- GI50 (NCI-H522): 2.12 µM (inactive)
- GI50 (NCI/ADR-RES): 11.4 µM (inactive)
- GI50 (OVCAR-3): 12.1 µM (inactive)
- GI50 (OVCAR-4): 17.7 µM (inactive)
- GI50 (OVCAR-5): 18.6 µM (inactive)
- GI50 (OVCAR-8): 4.79 µM (inactive)
- GI50 (PC-3): 13.5 µM (inactive)
- GI50 (RPMI-8226): 2.59 µM (inactive)
- GI50 (RXF 393): 8.93 µM (inactive)
- GI50 (SF-268): 18 µM (inactive)
- GI50 (SF-295): 14.8 µM (inactive)
- GI50 (SK-MEL-28): 12.4 µM (inactive)
- GI50 (SK-MEL-2): 20.2 µM (inactive)
- GI50 (SK-MEL-5): 12.9 µM (inactive)
- GI50 (SK-OV-3): 20.3 µM (inactive)
- GI50 (SN12C): 7.85 µM (inactive)
- GI50 (SNB-19): 17.5 µM (inactive)
- GI50 (SNB-75): 12.4 µM (inactive)
- GI50 (SR): 7.8 µM (inactive)
- GI50 (T47D): 14.8 µM (inactive)
- GI50 (TK-10): 14.2 µM (inactive)
- GI50 (U-251): 14.6 µM (inactive)
- GI50 (UACC-257): 18.2 µM (inactive)
- GI50 (UACC-62): 15.4 µM (inactive)
- GI50 (UO-31): 10.7 µM (inactive)

SMILES: Cc1cc(C)nc(NS(=O)(=O)c2ccc(NC(=O)c3cc([N+](=O)[O-])cc([N+](=O)[O-])c3)cc2)n1
- GI50 (786-0): > 100 µM (inactive)
- GI50 (A498): > 100 µM (inactive)
- GI50 (A549): > 100 µM (inactive)
- GI50 (BT-549): > 100 µM (inactive)
- GI50 (CAKI-1): > 100 µM (inactive)
- GI50 (CCRF-CEM): 59.7 µM (inactive)
- GI50 (COLO 205): 18.3 µM (inactive)
- GI50 (DU-145): > 100 µM (inactive)
- GI50 (HCT-116): > 100 µM (inactive)
- GI50 (HCT-15): > 100 µM
- GI50 (HL-60): 30.1 µM (inactive)
- GI50 (HOP-62): > 100 µM (inactive)
- GI50 (HOP-92): 42.5 µM (inactive)
- GI50 (HT-29): 31.4 µM (inactive)
- GI50 (Hs-578T): > 100 µM (inactive)
- GI50 (IGROV-1): > 100 µM (inactive)
- GI50 (K562): 60.7 µM (inactive)
- GI50 (KM12): 50.7 µM (inactive)
- GI50 (LOX IMVI): 26.8 µM (inactive)
- GI50 (M14): 45.8 µM (inactive)
- GI50 (MCF7): 55 µM (inactive)
- GI50 (MDA-MB-231): > 100 µM (inactive)
- GI50 (MDA-MB-435): > 100 µM (inactive)
- GI50 (MDA-N): > 100 µM (inactive)
- GI50 (MOLT-4): 1.79 µM (inactive)
- GI50 (Malme-3M): 42.1 µM (inactive)
- GI50 (NCI-H226): > 100 µM (inactive)
- GI50 (NCI-H23): > 100 µM (inactive)
- GI50 (NCI-H460): 86.7 µM (inactive)
- GI50 (NCI/ADR-RES): > 100 µM (inactive)
- GI50 (OVCAR-3): 30.5 µM (inactive)
- GI50 (OVCAR-4): 22.9 µM (inactive)
- GI50 (OVCAR-8): > 100 µM (inactive)
- GI50 (PC-3): 58.7 µM (inactive)
- GI50 (RPMI-8226): 57.5 µM (inactive)
- GI50 (RXF 393): > 100 µM (inactive)
- GI50 (SF-268): 44.4 µM (inactive)
- GI50 (SF-539): 37 µM (inactive)
- GI50 (SK-MEL-28): 99.8 µM (inactive)
- GI50 (SK-MEL-2): > 100 µM (inactive)
- GI50 (SK-MEL-5): 95.3 µM (inactive)
- GI50 (SK-OV-3): > 100 µM (inactive)
- GI50 (SN12C): 70.6 µM (inactive)
- GI50 (SNB-19): > 100 µM (inactive)
- GI50 (SNB-75): 15.6 µM (inactive)
- GI50 (SR): 0.0755 µM (active)
- GI50 (SW-620): > 100 µM (inactive)
- GI50 (T47D): 49.4 µM (inactive)
- GI50 (TK-10): > 100 µM (inactive)
- GI50 (U-251): 84.3 µM (inactive)
- GI50 (UACC-257): 16.4 µM (inactive)
- GI50 (UACC-62): 77.3 µM (inactive)
- GI50 (UO-31): > 100 µM (inactive)
